US20250034170A1, “SMALL MOLECULE MODULATORS OF GLUCOCEREBROSIDASE ACTIVITY AND USES THEREOF” (Vanqua Bio, Inc., priority 2021, published 2025)

Target: T1, GCase (Homo sapiens, UniProt P04062)
T1 construct: endogenous in cells; host or cells: HeLa cells
T1 sequence (P04062 40-536): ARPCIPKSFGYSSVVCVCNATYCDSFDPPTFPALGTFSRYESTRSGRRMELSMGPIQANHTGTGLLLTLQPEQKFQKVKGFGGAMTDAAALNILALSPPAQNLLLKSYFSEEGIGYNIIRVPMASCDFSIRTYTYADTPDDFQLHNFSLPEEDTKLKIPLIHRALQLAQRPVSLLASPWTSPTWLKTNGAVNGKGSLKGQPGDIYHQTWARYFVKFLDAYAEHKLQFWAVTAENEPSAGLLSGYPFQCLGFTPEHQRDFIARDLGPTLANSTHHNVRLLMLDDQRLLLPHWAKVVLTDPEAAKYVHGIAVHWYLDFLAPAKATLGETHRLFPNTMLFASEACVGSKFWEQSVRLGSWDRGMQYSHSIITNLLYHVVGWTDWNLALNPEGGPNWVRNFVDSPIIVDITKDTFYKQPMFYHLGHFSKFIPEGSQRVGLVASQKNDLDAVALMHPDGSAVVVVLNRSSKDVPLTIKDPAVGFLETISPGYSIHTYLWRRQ
Assay: activation of GCase in a live cell PFB assay in HELA cells
Type: cell-based
Procedure: Exemplary compounds were evaluated for activation of GCase in a live cell PFB assay in HELA cells (essentially as described in Ysselstein et al., “LRRK2 kinase activity regulates lysosomal glucocerebrosidase in neurons derived from Parkinson's disease patients” Nature Communications (2019) 10:5570). […] EC50 ranges: A: <10 μM; B: >10-50 μM; C: >50-100 μM; D: >100 μM.

[1] = activation of GCase, EC50 ranges

Row | Structure (SMILES) | EC50 [1] [µM] | EC50 (EC50 given as range classes) [µM]
1 | FC(F)Cn1ncc2ncc(N3CCCC4(CC(Oc5ccc(C(F)(F)F)cn5)C4)C3)nc21 (stereo not shown) [Compound 28, 6-[1-(2,2-difluoroethyl)-1H-pyrazolo[3,4-b]pyrazin-6-yl]-2-{[5-(trifluoromethyl)pyridin-2-yl]oxy}-6-azaspiro[3.5]nonane] | 10 to 50 | 
2 | FC(F)Cn1ncc2ncc(N3CCC4(CCN(c5cccc(C(F)(F)F)n5)C4)CC3)nc21 [Compound 143, 8-[1-(2,2-difluoroethyl)-1H-pyrazolo[3,4-b]pyrazin-6-yl]-2-[6-(trifluoromethyl)pyridin-2-yl]-2,8-diazaspiro[4.5]decane] | < 10 | 
3 | CCn1nc(C(F)(F)F)c2ncc(N3CCC4(CN(c5cc(C(F)(F)F)nc(C)n5)C4)C3)nc21 [Cmpd 1136] | < 10 | 
4 | Cn1c(N2CCC3(CN(c4cnc(C(F)(F)F)nc4)C3)C2)nc2c(cnn2CC(F)(F)F)c1=O [Cmpd 1018] |  | 10 to 50
5 | FC(F)Cn1ncc2ncc(N3CCC4(CCN(c5ccc(C(F)(F)F)nc5)C4)C3)nc21 (stereo not shown) [Cmpd 482] | 10 to 50 | 
6 | O=C(c1ccc(C(F)(F)F)cc1)N1CC2(CCN(c3cnc4cnn(CC(F)F)c4n3)C2)C1 [Cmpd 377] | > 100 | 
7 | Cc1nc(N2CC3(CCN(c4cncc(-c5ccnn5CC(F)F)n4)C3)C2)cc(C(F)(F)F)n1 [Cmpd 1119] | 10 to 50 | 
8 | Cc1nc(N2CCC3(CC2)CCN(c2cnc4cnn(CC(F)F)c4n2)C3)cc(C(F)(F)F)n1 [Cmpd 579] |  | 10 to 50
9 | Cc1nc(N2CC3(CCN(c4ncc5cnn(C(F)F)c5n4)C3)C2)cc(C(F)(F)F)n1 [Cmpd 650] | < 10 | 
10 | Cc1nc(N2CCC3(CC2)CCN(c2cnc4c(C)nn(CC(F)F)c4n2)C3)cc(C(F)(F)F)n1 [Cmpd 582] |  | 10 to 50
11 | Cc1nn(CC(F)F)c2nc(N3CCC4(CC3)CC(=O)N(c3cncc(C(F)(F)F)n3)C4)cnc12 [Cmpd 280] | 10 to 50 | 
12 | Cc1ncc(CN2CC3(CCN(c4cnc5cnn(CC(F)F)c5n4)CC3)CC2=O)s1 [Cmpd 423] |  | 10 to 50
13 | FC(F)(F)c1cc(N2CCCC3(C2)CN(c2cnc4cn(Cc5ccccc5)nc4n2)C3)ccn1 [Compound 103, 2-{2-benzyl-2H-pyrazolo[3,4-b]pyrazin-6-yl}-6-[2-(trifluoromethyl)pyridin-4-yl]-2,6-diazaspiro[3.5]nonane] | 10 to 50 | 
14 | CC[C@@H]1N(c2cnc(C(F)(F)F)nc2)C[C@]12CCN(c1cnc3cnn(CC(F)F)c3n1)C2 [Cmpd 1049] | 10 to 50 | 
15 | Cc1cc(N2CC3(CCN(c4cnc5c(C)nn(CC(F)F)c5n4)C3)C2)nc(C(F)(F)F)n1 [Cmpd 464] | < 10 | 
16 | FC(F)Cn1ncc2ncc(N3CC4(CCCN(c5ccc(C(F)F)nc5)C4)C3)nc21 [Compound 157, 2-[1-(2,2-difluoroethyl)-1H-pyrazolo[3,4-b]pyrazin-6-yl]-6-[6-(difluoromethyl)pyridin-3-yl]-2,6-diazaspiro[3.5]nonane] | > 100 | 
17 | Cc1ncc(N2CC3(CCN(c4ncc5c(C)nn(CC(F)(F)F)c5n4)C3)C2)c(C(F)(F)F)n1 [Cmpd 620] |  | 10 to 50
18 | CC1CN(c2cnc3cnn(CC(F)F)c3n2)CCC12CC(=O)N(c1cc(C(F)(F)F)ccn1)C2 (stereo not shown) [Cmpd 725] | 10 to 50 | 
19 | CC(C)(C)Cn1ncc2ncc(N3CCC4(CN(c5ccnc(C(F)(F)F)c5)C4)C3)nc21 [Cmpd 1125] | 10 to 50 | 
20 | CCN1C(=O)N(c2ccnc(C(F)(F)F)c2)C(=O)C12CCN(c1cnc3cnn(CC(F)F)c3n1)CC2 [Cmpd 850] | < 10 | 

Row | Structure (SMILES) | EC50 [1] [µM] | EC50 (EC50 given as range classes) [µM]
21 | COc1nc(C(F)(F)F)ccc1N1CC2(CCN(c3cnc4cnn(CC(F)F)c4n3)CC2)CC1=O [Cmpd 779] |  | < 10
22 | O=C1CC2(CCN(c3cnc4cnn(CC(F)F)c4n3)CC2)CN1Cc1ccc(C(F)(F)F)cc1F [Cmpd 446] | < 10 | 
23 | Cc1nn(C2COC2)c2nc(N3CCC4(CCN(c5ccnc(C(F)(F)F)c5)C4)C3)ncc12 (stereo not shown) [Cmpd 475] | > 100 | 
24 | Cc1nc(N2CCC3(CCN(c4cnc5cnn(CC(F)(F)F)c5n4)C3)C2)cc(C(F)(F)F)n1 (stereo not shown) [Cmpd 538] | 10 to 50 | 
25 | O=C1CCC2(CCN(c3cnc4cnn(CC(F)F)c4n3)C2)CN1c1cc(C(F)(F)F)ccn1 (stereo not shown) [Cmpd 794] |  | < 10
26 | O=C(c1cccc(C(F)(F)F)c1)N1CC2(CCN(c3cnc4cnn(CC(F)F)c4n3)C2)C1 [Cmpd 382] |  | 10 to 50
27 | FC(F)(F)c1cc(N2CC3(CCN(c4cnc5cnn(C[C@@H]6CCO6)c5n4)C3)C2)ccn1 [Cmpd 933] | < 10 | 
28 | O=C1N(c2nc(C(F)(F)F)co2)CCC12CCN(c1cnc3cnn(CC(F)F)c3n1)CC2 [Cmpd 838] | 10 to 50 | 
29 | Fc1cc(N2CCC3(CCN(c4cnc5cnn(CC(F)F)c5n4)CC3)C2)cnc1C(F)(F)F [Cmpd 742] | < 10 | 
30 | O=C1N(c2cccc(C(F)(F)F)n2)CCC12CCCN(c1cnc3cnn(CC(F)F)c3n1)C2 (stereo not shown) [Compound 96, 7-[1-(2,2-difluoroethyl)-1H-pyrazolo[3,4-b]pyrazin-6-yl]-2-[6-(trifluoromethyl)pyridin-2-yl]-2,7-diazaspiro[4.5]decan-1-one] | 10 to 50 | 
31 | FC(F)(F)c1ncc(N2CC3(CCN(c4ncc5cnn(C6CCCCO6)c5n4)C3)C2)cn1 (stereo not shown) [Cmpd 469] | > 100 | 
32 | O=C1CC2(CCN1c1cnc3cnn(CC(F)F)c3n1)CN(c1cccc(C(F)(F)F)n1)C2 [Cmpd 667] | 50 to 100 | 
33 | CC1CC2(CCN1c1cnc3cnn(CC(F)F)c3n1)CC(=O)N(c1cc(C(F)(F)F)ccn1)C2 (stereo not shown) [Cmpd 726] | 10 to 50 | 
34 | FC(F)Cn1ncc2ncc(N3CC4(CCN(c5ccc(C(F)(F)F)cn5)CC4)C3)nc21 [Compound 124, 2-[1-(2,2-difluoroethyl)-1H-pyrazolo[3,4-b]pyrazin-6-yl]-7-[5-(trifluoromethyl)pyridin-2-yl]-2,7-diazaspiro[3.5]nonane] | < 10 | 
35 | Cc1cc(N2CC3(CCN(c4cncc(-c5nncs5)n4)C3)C2)nc(C(F)(F)F)n1 [Cmpd 465] | > 100 | 
36 | CC(C)N1C(=O)N(c2cc(C(F)(F)F)ccn2)C(=O)C12CN(c1cnc3cnn(CC(F)F)c3n1)C2 [Cmpd 300] | 50 to 100 | 
37 | CC1CC2(CCN(c3cccc(C(F)(F)F)n3)C2=O)CCN1c1cnc2cnn(CC(F)F)c2n1 (stereo not shown) [Cmpd 668] | < 10 | 
38 | Cc1nc(N2CCC3(CC2)CN(c2cnc4cnn(CC(F)F)c4n2)C3)cc(C(F)(F)F)n1 [Cmpd 588] |  | < 10
39 | FC(F)Cn1ncc2ncc(N3CCCC4(CCN(c5cc(C(F)(F)F)ccn5)CC4)C3)nc21 [Cmpd 217] |  | 10 to 50
40 | FC(F)Cn1ncc2ncc(N3CCC4(CCN(c5cccc(C(F)(F)F)n5)CC4)CC3)nc21 [Cmpd 809] |  | < 10

Row | Structure (SMILES) | EC50 [1] [µM] | EC50 (EC50 given as range classes) [µM]
41 | FC(F)Cn1ncc2ncc(N3CCC4(CC3)CN(c3cncc(C(F)(F)F)c3)CCO4)nc21 [Cmpd 206] |  | < 10
42 | CCc1csc(CN2CCC3(CCN(c4cnc5cnn(CC(F)F)c5n4)CC3)C2=O)n1 [Cmpd 364] | < 10 | 
43 | FC(F)(F)c1cc(N2CC3(CCN(c4nccc(-c5nncs5)n4)C3)C2)ccn1 [Cmpd 986] |  | < 10
44 | Cc1nc(N2CC3(CCN(c4ncc5c(C)nn(C6COC6)c5n4)C3)C2)cc(C(F)(F)F)n1 [Cmpd 504] | 10 to 50 | 
45 | FC(F)Cn1ncc2ncc(N3CCC4(CN(c5cnc(C(F)(F)F)nc5)C4)C3)nc21 [Cmpd 316] | 10 to 50 | 
46 | O=C1N(c2cncc(C(F)(F)F)n2)CCC12CCN(c1cnc3cnn(C4COC4)c3n1)CC2 [Cmpd 276] | 10 to 50 | 
47 | O=C1N(c2cccc(C(F)(F)F)n2)CCCC12CN(c1cnc3cnn(CC(F)F)c3n1)C2 [Compound 115, 2-[1-(2,2-difluoroethyl)-1H-pyrazolo[3,4-b]pyrazin-6-yl]-6-[6-(trifluoromethyl)pyridin-2-yl]-2,6-diazaspiro[3.5]nonan-5-one] | 10 to 50 | 
48 | Cc1nc(N2CCC3(CC(=O)N(c4cnc5cnn(CC(F)F)c5n4)C3)C2)cc(C(F)(F)F)n1 (stereo not shown) [Cmpd 509] | 10 to 50 | 
49 | Cc1nn(C2COC2)c2nc(N3CCC4(CN(c5ccnc(C(F)(F)F)c5)C4)C3=O)cnc12 [Cmpd 1002] |  | < 10
50 | CCC1N(c2cnc(C(F)(F)F)nc2)C(=O)CC12CCN(c1cnc3cnn(CC(F)F)c3n1)CC2 (stereo not shown) [Cmpd 905] | 10 to 50 | 
51 | FC(F)Cn1ncc2ncc(N3CC4(CCN(c5cc(C(F)(F)F)ccn5)CC4)C3)nc21 [Compound 3, 2-[1-(2,2-difluoroethyl)-1H-pyrazolo[3,4-b]pyrazin-6-yl]-7-[4-(trifluoromethyl)pyridin-2-yl]-2,7-diazaspiro[3.5]nonane] | < 10 | 
52 | CC(C(F)F)n1ncc2ncc(N3CCC4(CCN(c5cc(C(F)(F)F)ccn5)C4)CC3)nc21 (stereo not shown) [Cmpd 752] | < 10 | 
53 | O=C1CC2(CCN(c3cnc4cnn(CC(F)F)c4n3)CC2)CN1c1ccc(F)cc1F [Cmpd 728] | 10 to 50 | 
54 | CCN1C(=O)N(c2ccc(C(F)(F)F)cc2)C(=O)C12CCN(c1cnc3cnn(C4COC4)c3n1)CC2 [Cmpd 869] | 10 to 50 | 
55 | Cn1c(N2CCC3(CCN(c4ccnc(C(F)(F)F)c4)C3)CC2)nc2c(cnn2CC(F)F)c1=O [Cmpd 1013] |  | < 10
56 | Cn1c(N2CCC3(CCN(c4cnc(C(F)(F)F)nc4)C3)CC2)nc2c(cnn2CC(F)(F)F)c1=O [Cmpd 1016] |  | < 10
57 | Cn1c(N2CCC3(CN(c4ccnc(C(F)(F)F)c4)C3)C2=O)nc2c(cnn2CC(F)F)c1=O [Cmpd 992] |  | 10 to 50
58 | O=C1CC2(CCN(c3ncc4cnn(CC(F)F)c4n3)CC2)CN1c1ccc(C(F)(F)F)nc1 [Cmpd 828] |  | 10 to 50
